# Assay results published in patent US20260373164A1, “4(RS)-4-F4-NEUROPROSTANE DERIVATIVES (4-F4T-NEUROP) AND THEIR USE IN TREATING VENTILATOR INDUCED DIAPHRAGMATIC DYSFUNCTION AND OTHER DISEASES” (INSTITUT NATIONAL DE LA SANTÉ ET DE LA RECHERCHE MÉDICALE, priority 2022, published 2026).
# Columns and labels:
# RyR2 = conditions: cited from earlier work
# [1] = Pharmacokinetic study in pigs, plasmatic concentration after IV bolus; format: in vivo, piglets; conditions: single IV bolus 0.250 mg·kg^−1, 3 pigs
# Description: In a first set of experiment, a pharmacokinetic study was performed on 3 control pig injected with a single bolus of VB558 (0.250 mg·kg^−1). Blood samples were collected every regularly during 12 hours to evaluate the plasmatic concentration of VB558. […] In order to test the preventing effect of VB558 in the piglet model, the protocol of IV injection was slightly adapted to the duration of the mechanical ventilation (i.e 72 hours). The inventors injected a bolus of 0.250 mg·kg^−1 then a maintenance dose of 0.025 mg·kg^−1 every 12 hours (FIG. 5B). The VB558 group was compared to a group of piglets (placebo) receiving the same amount of solvent (methanol) (FIG. 5B).
SMILES,RyR2 mediated Ca2+-leak in cardiomyocytes (RyR2; previous study [30]),"cardiac anti-arrhythmic effect, RyR2 stabilization (RyR2; previously reported (ref. 21))","Tmax ([1]; pig, plasma, 0.25 mg/kg, read-out: time of plasmatic peak) [min]",biodistribution [1],dissipation of plasmatic peak [1]
"CC/C=C\C/C=C\C/C=C\C[C@@H]1[C@H](/C=C/C(O)CCC(=O)O)[C@@H](O)C[C@H]1O (mixture of isomers) [Compound 4F4t-NeuroP, 4(RS)-4-F4t-Neuroprostane]",able to prevent RyR2 mediated Ca^2+-leak in cardiomyocytes,the active molecule was not DHA itself but a non-enzymatic metabolite of DHA,–,–,–
"CC/C=C\C[C@@H]1[C@H](/C=C/C(O)CCC(=O)O)[C@@H](O)C[C@H]1O (mixture of isomers) [VB558, (E)-6-((1S,2R,3R,5S)-3,5-dihydroxy-2-((Z)-pent-2-en-1-yl)cyclopentyl)-4-hydroxyhex-5-enoic Acid]",–,–,5 to 10,fast biodistribution,dissipated rapidly within an hour
